These results are taken from patent US20230365563A1, “QUINAZOLINE COMPOUND AND APPLICATION THEREOF” (SHANGHAI PHARMACEUTICALS HOLDING CO., LTD., priority 2020, published 2023).

As a reminder, the IC50 is the concentration at which inhibition is half-maximal.

In assay [1] the target is T1, KRAS-G12D and SOS1 (Homo sapiens, UniProt P01116, G12D).
T1 construct: purchased
Description: Inhibition of KRAS-G12D/SOS1 binding (Cisbio binding kit, 665/615 ratio), Effect Embodiment A. The conditions noted are these: read-out: GTP-KRAS-G12D:SOS1 IC50. In outline:
(§1)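 Test compounds were serially diluted 3-fold from the storage solution over 11 points and dispensed in duplicate wells at 1% final DMSO.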

Assay [2] concerns the target T2, KRAS_WT and SOS1 (Homo sapiens, UniProt P01116).
T2 construct: purchased
Description: Inhibition of KRAS_WT/SOS1 binding (Cisbio binding kit, 665/615 ratio), Effect Embodiment C. The conditions noted are these: read-out: GTP-KRAS-WT:SOS1 IC50. In outline: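 Compounds tested as 3-fold, 11-point dilutions in duplicate at 1% DMSO final against the KRAS_WT/SOS1 binding system. IC50 derived by nonlinear regression fit.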

Assay [3] addresses T3, KRAS_G12D and cRAF (Homo sapiens, UniProt P01116, G12D).
T3 construct: purchased
Description: Inhibition of KRAS_G12D/cRAF binding (Cisbio binding kit, 665/615 ratio), Effect Embodiment B. As to conditions: read-out: GTP-KRAS-G12D:CRAF IC50. In outline: as §1

Structures can show the parent of a compound that is named as a salt. Where only a bound is given, the exact number is not on record here.

T3 sequence (P01116 1-188 isoform P01116-2 G12D): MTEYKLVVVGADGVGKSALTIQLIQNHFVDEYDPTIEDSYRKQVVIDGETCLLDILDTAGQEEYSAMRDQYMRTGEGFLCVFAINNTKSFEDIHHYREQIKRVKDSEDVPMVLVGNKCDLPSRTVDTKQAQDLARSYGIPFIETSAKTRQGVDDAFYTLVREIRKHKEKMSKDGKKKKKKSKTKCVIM
T1 sequence (P01116 1-188 isoform P01116-2 G12D): as above
T2 sequence (P01116 1-188 isoform P01116-2): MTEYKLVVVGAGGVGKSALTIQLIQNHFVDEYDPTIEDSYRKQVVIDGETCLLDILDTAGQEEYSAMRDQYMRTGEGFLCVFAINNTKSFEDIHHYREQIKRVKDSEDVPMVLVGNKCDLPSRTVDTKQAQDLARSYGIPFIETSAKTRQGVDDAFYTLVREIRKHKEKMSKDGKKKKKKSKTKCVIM

Consider `CO[C@@H](COc1nc(N2CC3CCC(C2)N3)c2cc(Cl)c(-c3cc(O)cc4ccccc34)c(F)c2n1)CN1C2CCC1COC2` (single isomer, unassigned) [Compound 182, (4R or S)-4-(2-((2R)-3-(3-oxa-8-azabicyclo[3.2.1]octan-8-yl)-2-methoxypropoxy)-4-((1R,5S)-3,8-diazabicyclo[3.2.1]octan-3-yl)-6-chloro-8-fluoroquinazolin-7-yl)naphthalen-2-ol diformate], for which the results for the 50% inhibitory concentration (IC50) in assay [1], in assay [2] and in assay [3] were 53.3 nM, 3400 nM and 219 nM, respectively.
Take `CN(CCCCN1CCNCC1)CCCOc1nc(N2C[C@H]3CC[C@@H](C2)N3)c2cc(Cl)c(-c3cc(O)cc4ccccc34)c(F)c2n1` (single isomer, unassigned) [Compound 103, (S or R)-4-(4-((1R,5S)-3,8-diazabicyclo[3.2.1]octan-3-yl)-6-chloro-8-fluoro-2-(3-(methyl(4-(piperazin-1-yl)butyl)amino)propoxy)quinazolin-7-yl)naphthalen-2-ol tetrahydrochloride]: the IC50 turned out to be 19.4 nM in assay [1], 1260 nM in assay [2] and 120 nM in assay [3].
For the compound `C[C@@H](COc1nc(N2CC3CCC(C2)N3)c2cc(Cl)c(-c3cc(O)cc4ccc(F)cc34)c(F)c2n1)CN1C2CCC1COC2` (single isomer, unassigned) [Compound 234a, 4-((7S or 7R)-2-((2R)-3-(3-oxa-8-azabicyclo[3.2.1]octan-8-yl)-2-methylpropoxy)-4-((1R,5S)-3,8-diazabicyclo[3.2.1]octan-3-yl)-6-chloro-8-fluoroquinazolin-7-yl)-6-fluoronaphthalen-2-ol diformate], the IC50 was 11.8 nM in assay [1], 200 nM in assay [2] and 5.79 nM in assay [3].
As for `C[C@H](COc1nc(N2CC3CCC(C2)N3)c2cc(Cl)c(-c3cc(O)cc4ccccc34)c(F)c2n1)CN(C)C` (single isomer, unassigned) [Compound 202, 4-((S or R)-4-((1R,5S)-3,8-diazabicyclo[3.2.1]octan-3-yl)-6-chloro-2-((S)-3-(dimethylamino)-2-methylpropoxy)-8-fluoroquinazolin-7-yl)naphthalen-2-ol diformate], the IC50 in assay [1] is 51.8 nM; in assay [2], 2150 nM; in assay [3], 168 nM.
As for `CCc1cccc2cc(O)cc(-c3c(F)cc4c(N5CC6CCC(C5)N6)nc(OC[C@H](C)CN5C6CCC5CC(OC)C6)nc4c3F)c12` (single isomer, unassigned) [Compound 286a, (S or R)-4-(4-((1R,5S)-3,8-diazabicyclo[3.2.1]octan-3-yl)-6,8-difluoro-2-((R)-3-((1R,3S,5S)-3-methoxy-8-azabicyclo[3.2.1]octan-8-yl)-2-methylpropoxy)quinazolin-7-yl)-5-ethylnaphthalen-2-o1 dihydrochloride], the half-maximal inhibitory concentration (IC50) in assay [1] is 13.5 nM; in assay [2] it was 262 nM; in assay [3], 9.77 nM.
As to `CN(C)[C@H]1C[C@H](Oc2nc(N3CC4CCC(C3)N4)c3cc(Cl)c(-c4cc(O)cc5ccccc45)c(F)c3n2)C1` (single isomer, unassigned) [Compound 69b, 4-((S or R)-4-((1R,5S)-3,8-diazabicyclo[3.2.1]octan-3-yl)-6-chloro-2-((1R,3S)-3-(dimethylamino)cyclobutoxy)-8-fluoroquinazolin-7-yl)naphthalen-2-ol dihydrochloride], the IC50 in assay [1] is 157 nM; in assay [2] it was greater than 100000 nM; in assay [3], 1960 nM.
As to `CN1CC2(CC2)C[C@H]1COc1nc(N2C[C@H]3CC[C@@H](C2)N3)c2cc(Cl)c(-c3cc(O)cc4ccccc34)c(F)c2n1` (single isomer, unassigned) [Compound 167, (R or S)-4-(4-((1R,5S)-3,8-diazabicyclo[3.2.1]octan-3-yl)-6-chloro-8-fluoro-2-(((S)-5-methyl-5-azaspiro[2.4]heptan-6-yl)methoxy)quinazolin-7-yl)naphthalen-2-ol dihydrochloride], the figures for the IC50 in assay [1], in assay [2] and in assay [3] were 17.9 nM, 248 nM and 19.5 nM, respectively.
As for `Oc1cc(-c2c(Cl)cc3c(N4CC5CCC(C4)N5)nc(OCC(F)(F)CN4CCCC4)nc3c2F)c2ccccc2c1` (single isomer, unassigned) [Compound 107, 4-((S or R)-4-((1R,5S)-3,8-diazabicyclo[3.2.1]octan-3-yl)-6-chloro-2-(2,2-difluoro-3-(pyrrolidin-1-yl)propoxy)-8-fluoroquinazolin-7-yl)naphthalen-2-ol dihydrochloride], the IC50 in assay [1] amounted to 47 nM; in assay [2], 3490 nM; in assay [3], 160 nM.
As to `Oc1cc(-c2c(Cl)cc3c(N4CC5CCC(C4)N5)nc(OCCCN4C5COCC4C5)nc3c2F)c2ccccc2c1` (single isomer, unassigned) [Compound 200, 4-((7S or 7R)-2-(3-(3-oxa-6-azabicyclo[3.1.1]heptan-6-yl)propoxy)-4-((1R,5S)-3,8-diazabicyclo[3.2.1]octan-3-yl)-6-chloro-8-fluoroquinazolin-7-yl)naphthalen-2-ol diformate], the IC50 in assay [1] came to 62 nM; in assay [2], 2490 nM; in assay [3], 73.7 nM.
For the compound `Oc1cc(-c2c(Cl)cc3c(N4CC5CCC(C4)N5)nc(OCCCN4CCC5(CC4)COC5)nc3c2F)c2ccccc2c1` (single isomer, unassigned) [Compound 262, 4-((S or R)-2-(3-(2-oxa-7-azaspiro[3.5]nonan-7-yl)propoxy)-4-((1R,5S)-3,8-diazacyclo[3.2.1]octan-3-yl)-6-chloro-8-fluoroquinazolin-7-yl)naphthalen-2-ol diformate], the IC50 in assay [1] came to 24.3 nM; in assay [2], 1660 nM; in assay [3], 141 nM.
Regarding `CN(C)C1CN(c2nc(N3CC4CCCC3CN4)c3cc(Cl)c(-c4cc(O)cc5ccccc45)c(F)c3n2)C1` (single isomer, unassigned) [Compound 37, 4-((S or R)-4-((1S,5S or 1R,5R)-6,8-diazabicyclo[3.2.2]nonan-6-yl)-6-chloro-2-(3-(dimethylamino)azetidin-1-yl)-8-fluoroquinazolin-7-yl)naphthalen-2-ol], the half-inhibitory concentration (IC50) in assay [1] is 629 nM; in assay [2], 1010 nM; in assay [3], 2140 nM.
For `CN(C)CCCOc1nc(N2C[C@H]3CC[C@@H](C2)N3)c2cc(Cl)c(-c3cc(O)cc4ccccc34)c(F)c2n1` (single isomer, unassigned) [Compound 40a, (S or R)-4-(4-((1R,5S)-3,8-diazabicyclo[3.2.1]octan-3-yl)-6-chloro-2-(3-(dimethylamino)propoxy)-8-fluoroquinazolin-7-yl)naphthalen-2-ol] the same measures were 15.2 nM, 1040 nM and 104 nM.
Turning to `Oc1cc(-c2c(Cl)cc3c(N4CC5CCC(C4)N5)nc(OCCCN4CC5CCC4CO5)nc3c2F)c2ccccc2c1` (single isomer, unassigned) [Compound 187a, (R or S)-4-(2-(3-((1S,4S or 1R,4R)-2-oxa-5-azabicyclo[2.2.2]octan-5-yl)propoxy)-4-((1R,5S)-3,8-diazabicyclo[3.2.1]octan-3-yl)-6-chloro-8-fluoroquinazolin-7-yl)naphthalen-2-ol diformate], the IC50 in assay [1] is 27.4 nM; in assay [2], 1350 nM; in assay [3], 66.2 nM.
For `Oc1cc(-c2c(Cl)cc3c(N4CC5CCC(C4)N5)nc(OCCN4C5CC6CC4CC(C5)O6)nc3c2F)c2ccccc2c1` (single isomer, unassigned) [Compound 238, (S or R)-4-(2-(2-((1R,3R,5R,7R)-2-oxa-6-azadamantan-6-yl)ethoxy)-4-((1R,5S)-3,8-diazabicyclo[3.2.1]octan-3-yl)-6-chloro-8-fluoroquinazolin-7-yl)naphthalen-2-ol formate], the values for the 50% inhibitory concentration (IC50) in assay [1], in assay [2] and in assay [3] were 43.3 nM, 3080 nM and 155 nM, respectively.
In the same order, the values of `CC(C)CN(C)CCCOc1nc(N2C[C@H]3CC[C@@H](C2)N3)c2cc(Cl)c(-c3cc(O)cc4ccccc34)c(F)c2n1` (single isomer, unassigned) [Compound 115, 4-((S or R)-4-((1R,5S)-3,8-diazacyclo[3.2.1]octan-3-yl)-6-chloro-8-fluoro-2-(3-(isobutyl(methyl)amino)propoxy)quinazolin-7-yl)naphthalen-2-ol dihydrochloride] are 67.8 nM, 4130 nM and 130 nM.
For the compound `CC(C)(COc1nc(N2CC3CCC(C2)N3)c2cc(Cl)c(-c3cc(O)cc4ccccc34)c(F)c2n1)CN1CCCC1` (single isomer, unassigned) [Compound 102, 4-((S or R)-4-((1R,5S)-3,8-diazabicyclo[3.2.1]octan-3-yl)-6-chloro-2-(2,2-dimethyl-3-(pyrrolidin-1-yl)propoxy)-8-fluoroquinazolin-7-yl)naphthalen-2-ol dihydrochloride], the half-inhibitory concentration (IC50) was found to be 19.8 nM in assay [1], 1100 nM in assay [2] and 39 nM in assay [3].
As to `CC(C)N1CC2CCC(C1)N2CCCOc1nc(N2CC3CCC(C2)N3)c2cc(Cl)c(-c3cc(O)cc4ccccc34)c(F)c2n1` (single isomer, unassigned) [Compound 244, 4-((7S or 7R)-4-((1R,5S)-3,8-diazacyclo[3.2.1]octan-3-yl)-6-chloro-8-fluoro-2-(3-(3-isopropyl-3,8-diazacyclo[3.2.1]octan-8-yl)propoxy)quinazolin-7-yl)naphthalen-2-ol diformate], the IC50 came out at 48.5 nM in assay [1], 3340 nM in assay [2] and 260 nM in assay [3].
